These results are taken from patent publication US20250002475A1 (EPICS THERAPEUTICS, priority 2023, published 2025).

Molecules are shown by their SMILES.

Experiment [1] deals with T1, recombinant METTL3/METTL14 complex (Homo sapiens, UniProt Q86U44).
T1 construct: purchased Active Motif 311970; host or cells: Sf9 cells
In words: METTL3/14 Scintillation Proximity Assay (SPA), RNA methyltransferase activity. It counts as biochemical. The note with it: 5.31 nM METTL3/14 complex, 250 nM RNA substrate, 1 μM 3H-SAM, 90 min; for compounds marked * best of the two separated forms. In general terms: In a scintillation proximity assay essentially only radioactivity close to the scintillant gives light.

The test system of experiment [2] is Kasumi-1 cells. In words: Kasumi-1 cellular viability assay (ATP-Lite, 72 h). It counts as cell-based. The note with it: Homo sapiens, ATP-Lite luminescence, % viability relative to DMSO. In outline: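 Viability was read by ATP-Lite One Step luminescence after 72 h compound treatment at 37 °C/5% CO2, normalised to DMSO control, with IC50 fitted from concentration-response. Cells were Kasumi-1 (AML FAB M2) at 15000 per well in RPMI-1640/10% FBS, 0.1% DMSO final.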

Experiment [3] deals with Caov-3 cells. Kind of experiment: Caov-3 cellular viability assay (ATP-Lite, 72 h). Format: cell-based. The note with it: Homo sapiens, ATP-Lite luminescence, % viability relative to DMSO. In outline: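 IC50 values come from concentration-response fits of luminescent ATP content (ATP-Lite One Step), normalised as % viability versus DMSO. Compound exposure was 72 h at 37 °C in RPMI-1640/10% FBS with 0.1% final DMSO. Wells held 10000 cells each.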

T1 sequence (Q86U44 whole entry): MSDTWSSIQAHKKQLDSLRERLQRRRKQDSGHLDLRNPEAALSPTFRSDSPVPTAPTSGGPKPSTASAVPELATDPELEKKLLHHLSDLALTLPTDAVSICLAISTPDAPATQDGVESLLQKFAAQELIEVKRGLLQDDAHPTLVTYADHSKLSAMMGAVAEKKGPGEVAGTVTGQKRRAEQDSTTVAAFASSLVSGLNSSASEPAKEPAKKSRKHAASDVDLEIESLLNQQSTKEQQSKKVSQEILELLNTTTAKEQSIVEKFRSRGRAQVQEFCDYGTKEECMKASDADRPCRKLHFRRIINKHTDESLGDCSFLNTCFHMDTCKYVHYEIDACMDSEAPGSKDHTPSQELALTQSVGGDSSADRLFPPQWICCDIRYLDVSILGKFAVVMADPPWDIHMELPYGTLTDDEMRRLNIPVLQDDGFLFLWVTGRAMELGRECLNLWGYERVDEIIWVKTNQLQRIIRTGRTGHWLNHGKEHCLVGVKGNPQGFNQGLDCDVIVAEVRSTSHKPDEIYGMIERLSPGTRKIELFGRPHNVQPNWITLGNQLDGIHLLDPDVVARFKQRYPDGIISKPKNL
T1 sequence (Q9HCE5 whole entry partner): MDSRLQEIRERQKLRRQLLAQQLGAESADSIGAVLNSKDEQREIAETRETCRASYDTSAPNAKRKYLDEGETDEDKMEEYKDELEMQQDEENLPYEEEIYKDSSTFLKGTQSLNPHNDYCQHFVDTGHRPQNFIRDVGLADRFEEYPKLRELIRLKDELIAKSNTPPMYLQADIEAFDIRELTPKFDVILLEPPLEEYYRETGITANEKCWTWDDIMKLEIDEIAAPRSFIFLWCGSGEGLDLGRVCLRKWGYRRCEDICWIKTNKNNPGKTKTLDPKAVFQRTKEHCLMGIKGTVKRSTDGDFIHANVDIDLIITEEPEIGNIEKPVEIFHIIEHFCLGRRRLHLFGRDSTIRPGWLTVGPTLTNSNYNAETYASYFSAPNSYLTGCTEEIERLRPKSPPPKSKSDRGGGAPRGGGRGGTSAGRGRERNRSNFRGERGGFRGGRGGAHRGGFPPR

Consider `COc1cncc(-c2cn(Cc3ccc(N4CCC[C@@H](NCC5CCC5)C4)nn3)nn2)c1` [Compound 012, (R)-N-(cyclobutylmethyl)-1-(6-((4-(5-methoxypyridin-3-yl)-1H-1,2,3-triazol-1-yl)methyl)pyridazin-3-yl)piperidin-3-amine], for which the IC50 is at most 50 nM in experiment [1], 500 to 5000 nM in experiment [2] and 500 to 5000 nM in experiment [3].
In the case of `CC(c1ccc(N2CCC[C@@H](NCC3CC3)C2)cn1)n1cc(-c2cncc(N(C)C)n2)nn1` (single isomer, unassigned) [Compound 260], the concentration for half-maximal inhibition (IC50) in experiment [1] is at most 50 nM; in experiment [2], at most 500 nM; in experiment [3], at most 500 nM.
`c1ncc(N2CCCC2)cc1-c1cn(C2(c3ccc(N4CCC[C@@H](NCC5CC5)C4)nn3)COC2)nn1` [Compound 212, (R)-N-(cyclopropylmethyl)-1-(6-(3-(4-(5-(pyrrolidin-1-yl)pyridin-3-yl)-1H-1,2,3-triazol-1-yl)oxetan-3-yl)pyridazin-3-yl)piperidin-3-amine]: the IC50 in experiment [1] is at most 50 nM; in experiment [2], at most 500 nM; in experiment [3], at most 500 nM.
With `c1cc(Cc2nnc(-c3cncc(N4CCCC4)n3)s2)ncc1N1CCC[C@@H](NCC2CC2)C1` [Compound 361, (R)-N-(cyclopropylmethyl)-1-(6-((5-(6-(pyrrolidin-1-yl)pyrazin-2-yl)-1,3,4-thiadiazol-2-yl)methyl)pyridin-3-yl)piperidin-3-amine], the results for the IC50 in experiment [1], in experiment [2] and in experiment [3] were at most 50 nM, at most 500 nM and at most 500 nM, respectively.
On to `COc1cncc(-c2cn(C3(c4ccc(N5CCC[C@@H](NCC6CCC6)C5)cn4)COC3)nn2)c1` [Compound 150, (R)-N-(cyclobutylmethyl)-1-(6-(3-(4-(5-methoxypyridin-3-yl)-1H-1,2,3-triazol-1-yl)oxetan-3-yl)pyridin-3-yl)piperidin-3-amine], for which the half-maximal inhibitory concentration (IC50) is at most 50 nM in experiment [1], at most 500 nM in experiment [2] and at most 500 nM in experiment [3].
Take `COc1cc(-c2cn(C(C)n3ccc(N4CCC[C@@H](NCC5CCC5)C4)cc3=O)nn2)c2cn[nH]c2c1` (mixture of isomers) [Compound 050, 4-((R)-3-((cyclobutylmethyl)amino)piperidin-1-yl)-1-(1-(4-(6-methoxy-1H-indazol-4-yl)-1H-1,2,3-triazol-1-yl)ethyl)pyridin-2(1H)-one]: the IC50 in experiment [1] is at most 50 nM; in experiment [2], at most 500 nM; in experiment [3] it was at most 500 nM.
For the compound `CC1(CN[C@@H]2CCCN(c3ccc(C4(c5nnc(-c6cncc(N7CCCC7)n6)s5)COC4)nc3)C2)CC1` [Compound 367, (R)-N-((1-methylcyclopropyl)methyl)-1-(6-(3-(5-(6-(pyrrolidin-1-yl)pyrazin-2-yl)-1,3,4-thiadiazol-2-yl)oxetan-3-yl)pyridin-3-yl)piperdin-3-amine], the values for the IC50 in experiment [1], in experiment [2] and in experiment [3] were at most 50 nM, at most 500 nM and at most 500 nM, respectively.
`O=c1cc(-c2cn(C3(c4ccc(N5CCC[C@@H](NCC6CC6)C5)cn4)COC3)nn2)nc2ccccn12` [Compound 316, (R)-2-(1-(3-(5-(3-((cyclopropylmethyl)amino)piperidin-1-yl)pyridin-2-yl)oxetan-3-yl)-1H-1,2,3-triazol-4-yl)-4H-pyrido[1,2-a]pyrimidin-4-one]: the IC50 in experiment [1] was at most 50 nM; in experiment [2] it was 500 to 5000 nM; in experiment [3], 500 to 5000 nM.
`CN(C)c1cncc(-c2cn(Cc3ccc(N4CCC[C@@H](NCC5CC5)C4)nn3)nn2)c1` [Compound 183, (R)-5-(1-((6-(3-((cyclopropylmethyl)amino)piperidin-1-yl)pyridazin-3-yl)methyl)-1H-1,2,3-triazol-4-yl)-N,N-dimethylpyridin-3-amine]: the IC50 in experiment [1] is at most 50 nM; in experiment [2] it was 500 to 5000 nM; in experiment [3] it was at most 500 nM.
Consider `COc1cncc(-c2cc(Cn3ccc(N4CCC[C@@H](NCC5CCC5)C4)cc3=O)n[nH]2)c1` [Compound 095, (R)-4-(3-((cyclobutylmethyl)amino)piperidin-1-yl)-1-((5-(5-methoxypyridin-3-yl)-1H-pyrazol-3-yl)methyl)pyridin-2(1H)-one], for which the figures for the IC50 in experiment [1], in experiment [2] and in experiment [3] were at most 50 nM, 500 to 5000 nM and at most 500 nM, respectively.
In the same order, the values of `COc1cncc(-c2cn(C(C)c3ccc(N4CCC[C@@H](NCC5CCC5)C4)nn3)nn2)c1` (single isomer, unassigned) [Compound 066] are at most 50 nM, 500 to 5000 nM and 500 to 5000 nM.
In the same order, the values of `COc1cc(-c2cn(Cc3cnc(N4CCCC(NCC5CCC5)C4)s3)nn2)c2cn[nH]c2c1` (stereo not drawn) [Compound 026, N-(cyclobutylmethyl)-1-(5-((4-(6-methoxy-1H-indazol-4-yl)-1H-1,2,3-triazol-1-yl)methyl)thiazol-2-yl)piperidin-3-amine] are at most 50 nM, 500 to 5000 nM and over 5000 nM.
For `COc1cncc(-c2cn(C(C)c3ccc(N4CCC[C@@H](NCC5CCC5)C4)nc3F)nn2)c1` (single isomer, unassigned) [Compound 138] the same measures were at most 50 nM, 500 to 5000 nM and 500 to 5000 nM.
On to `CC(c1ncc(N2CCC[C@@H](NCC3CCC3)C2)cc1F)n1cc(-c2cncc(N3CCCC3)n2)nn1` (single isomer, unassigned) [Compound 303], for which the figures for the IC50 in experiment [1], in experiment [2] and in experiment [3] were at most 50 nM, at most 500 nM and at most 500 nM, respectively.
`CC#Cc1cncc(-c2cn(C3(c4ccc(N5CCC[C@@H](NCC6CC6)C5)cn4)COC3)nn2)c1` [Compound 345, (R)-N-(cyclopropylmethyl)-1-(6-(3-(4-(5-(prop-1-vn-1-yl)pyridin-3-yl)-1H-1,2,3-triazol-1-yl)oxetan-3-yl)pyridin-3-yl)piperidin-3-amine]: the IC50 in experiment [1] is at most 50 nM; in experiment [2] it was at most 500 nM; in experiment [3], at most 500 nM.
In the case of `CC(c1ccc(N2CCC[C@@H](NCC3CC3)C2)cn1)c1nnc(-c2cncc(N3CCCC3)n2)s1` (single isomer, unassigned) [Compound 360], the values for the IC50 in experiment [1], in experiment [2] and in experiment [3] were at most 50 nM, at most 500 nM and at most 500 nM, respectively.
`CN(C)c1cncc(NC(=O)C2(c3ccc(N4CCC[C@@H](NCC5CC5)C4)cn3)COC2)c1` [Compound 175, (R)-3-(5-(3-((cyclopropylmethyl)amino)piperidin-1-yl)pyridin-2-yl)-N-(5-(dimethylamino)pyridin-3-yl)oxetane-3-carboxamide]: the IC50 in experiment [1] was at most 50 nM; in experiment [2] it was 500 to 5000 nM; in experiment [3], 500 to 5000 nM.
Turning to `c1ncc(C2CCCC2)cc1-c1cn(C2(c3ccc(N4CCC[C@@H](NCC5CC5)C4)cn3)COC2)nn1` [Compound 313, (R)-1-(6-(3-(4-(5-cyclopentylpyridin-3-yl)-1H-1,2,3-triazol-1-yl)oxetan-3-yl)pyridin-3-yl)-N-(cyclopropylmethyl)piperidin-3-amine], the IC50 in experiment [1] was at most 50 nM; in experiment [2], at most 500 nM; in experiment [3], at most 500 nM.
`CC(c1ccc(N2CCC[C@@H](NCC3(C)CC3)C2)cn1)c1nnc(-c2cncc(N3CCCC3)n2)s1` (single isomer, unassigned) [Compound 366]: the half-maximal inhibitory concentration (IC50) was at most 50 nM in experiment [1], at most 500 nM in experiment [2] and at most 500 nM in experiment [3].
For the compound `O=C(Nc1cncc(N2CCCC2)n1)C1(c2ccc(N3CCC[C@@H](NCC4CCC4)C3)nc2)COC1` [Compound 319, (R)-3-(6-(3-((cyclobutylmethyl)amino)piperidin-1-yl)pyridin-3-yl)-N-(6-(pyrrolidin-1-yl)pyrazin-2-yl)oxetane-3-carboxamide], the half-inhibitory concentration (IC50) in experiment [1] is at most 50 nM; in experiment [2], at most 500 nM; in experiment [3], at most 500 nM.
In the case of `CC(n1cc(-c2cncc(N3CCC(C)(C)C3)n2)nn1)n1ccc(N2CCC[C@@H](NCC3CC3)C2)cc1=O` (single isomer, unassigned) [Compound 230], the IC50 is at most 50 nM in experiment [1], at most 500 nM in experiment [2] and at most 500 nM in experiment [3].
For `c1ncc(C2CC2)cc1-c1nnc(C2(c3ccc(N4CCC[C@@H](NCC5CC5)C4)cn3)COC2)o1` [Compound 344, (R)-N-(cyclopropylmethyl)-1-(6-(3-(5-(5-cyclopropylpyridin-3-yl)-1,3,4-oxadiazol-2-yl)oxetan-3-yl)pyridin-3-yl)piperidin-3-amine], the figures for the IC50 in experiment [1], in experiment [2] and in experiment [3] were 50 to 500 nM, 500 to 5000 nM and over 5000 nM, respectively.
In the same order, the values of `COc1cncc(-c2cn(Cc3ccc(N4C[C@@H](F)C[C@@H](NCC5CCC5)C4)nn3)nn2)c1` [Compound 056, (3R,5S)-N-(cyclobutylmethyl)-5-fluoro-1-(6-((4-(5-methoxypyridin-3-yl)-1H-1,2,3-triazol-1-yl)methyl)pyridazin-3-yl)piperidin-3-amine] are at most 50 nM, over 5000 nM and over 5000 nM.
In the same order, the values of `COc1cc(-c2cn(Cc3ccc(N4CCC[C@@H](NCCC(C)(C)C)C4)nn3)nn2)c2cn[nH]c2c1` [Compound 024, (R)-N-(3,3-dimethylbutyl)-1-(6-((4-(6-methoxy-1H-indazol-4-yl)-1H-1,2,3-triazol-1-yl)methyl)pyridazin-3-yl)piperidin-3-amine] are at most 50 nM, over 5000 nM and over 5000 nM.

Usually IC50 stands for the midpoint of a concentration-inhibition curve.
